Test results reported in patent publication US12370241B2, “Nasal powder formulation for treatment of hypoglycemia” (AMPHASTAR PHARMACEUTICALS, INC., priority 2015, dated 2025).
Where two headings read alike, the source gives them in different places.

Assays:
[1] = tested on: patients with type 1 diabetes; assay: Phase III crossover study, intranasal vs IM glucagon after insulin-induced hypoglycemia (Example 9); type: in vivo, human; details: post-dosing
Method: A multiple center, randomized, two-way, crossover Phase III study in which patients with type 1 diabetes (T1D, n=75) were enrolled to evaluate the effectiveness and safety of a single dose of intranasally administered glucagon (the powder that is the subject of this invention) compared to glucagon administered by IM injection following insulin-induced hypoglycemia was conducted. The primary endpoint in this study was the proportion of patients who achieved an increase in blood glucose levels to ≥70 mg/dL within 30 minutes of treatment with glucagon or a […] increment in blood glucose within 30 minutes of treatment with glucagon. The protocol used insulin to reduce blood glucose levels to the hypoglycemic range (target nadir of <50 mg/dL).

[2] = tested on: children with type 1 diabetes with induced hypoglycemia; details: injected (SC) (Stenninger 1993); cited from earlier work
adults with hypoglycemia = details: cited from earlier work
[3] = water; cited from earlier work

Substance	Time by which blood glucose increased to within the normal range in most subjects [1]	Time for which plasma glucose levels continued to rise [2]	Time for which glucose levels continued to increase after administration (adults with hypoglycemia; adults with hypoglycemia, injected (Hvidberg 1994; Rosenfalck 1992))	Time after dosing at which glucose levels reach a plateau (adults with hypoglycemia; adults with type 1 diabetes and insulin-induced hypoglycemia, injected (Rosenfalck 1992))	Time for which glucose levels continued to increase after administration (adults with hypoglycemia; healthy adults with insulin induced hypoglycemia, injected (Hvidberg 1994))	Aqueous solubility [3]
glucagon [injected glucagon]	about 15 minutes	at least 45 minutes	at least 90 minutes	at least 90 minutes	at least 90 minutes	
hydroxylpropyl-β-CD [HP-β-CD]						higher aqueous solubility than α-CD
